Tests used:
[1] = test system: patients with Cocaine Use Disorder (CUD); experiment: Phase 2 trial: alcohol consumption by TLFB; format: in vivo, human; settings: difference vs placebo not statistically significant (P=0.072)
Description: (§1) This study was conducted in patients with CUD and consisted of about a 21-day screening period followed by a 7-day baseline period, a 98-day outpatient treatment period, and an end of study visit evaluation about 14 days after the last study drug administration ([…]. A). Study treatment was taken twice daily (separated by about 12-hour intervals) with food. For patients in the mavoglurant arm [mavoglurant (free form) provided as modified release formulation (e.g. in WO2014/199316)], an uptitration regimen was performed for 14 days (50 mg b.i.d. from Days 1 to 7 and 100 mg b.i.d from Days 8 to 14) and was followed by 200 mg b.i.d for 84 days.
Alcohol consumption was recorded by the subjects using TLFB. The number of drinks was recorded daily. […] The past consumption of alcohol was the proportion of alcohol over the 28 days preceding the screening visit, which was assessed retrospectively using the TLFB. […]
Patient Reported Outcome included: • 1. The TLFB cocaine: is a cocaine assessment method that obtains estimates of daily cocaine intake and has been evaluated with clinical and nonclinical populations. […] The TLFB alcohol: is a drinking assessment method that obtains estimates of daily drinking and has been evaluated with clinical and nonclinical populations. […]

[2] = Phase 2 trial: safety and adverse events; format: in vivo, human
Description: as §1
Data for vital signs, electrocardiogram (ECG) and clinical laboratory evaluations were summarized by treatment and visit/time. Mavoglurant plasma concentrations were recorded at pre-dose and 2 hour (±1 hour) sampling window after the morning dose and summary statistics for concentrations were provided for plasma.
Data for vital signs (BP, pulse rate, body temperature), ECGs, and clinical laboratory evaluations were listed by treatment, subject, visit/time; abnormalities were flagged (if ranges were available).
The number and percentage of subjects with AEs are tabulated by body system and PT with a breakdown by treatment. A subject with multiple AEs within body system was only counted once towards the total of this body system and treatment.
Patient Reported Outcome included: • 1. The TLFB cocaine: is a cocaine assessment method that obtains estimates of daily cocaine intake and has been evaluated with clinical and nonclinical populations. Using a calendar, people provide retrospective estimates of their daily cocaine use over a specified time period that can vary up to 12 months from the interview date. Several memory aids can be used to enhance recall (e.g., calendar; key dates serve as anchors for reporting cocaine use). […] The method is recommended for use when relatively precise estimates of cocaine use are necessary, especially when a complete use pre-posttreatment). Clinically, the TLFB can be used to provide feedback about one's cocaine consumption in an effort to increase a client's motivation to change. • 2. The TLFB alcohol: is a drinking assessment method that obtains estimates of daily drinking and has been evaluated with clinical and nonclinical populations. Using a calendar, people provide retrospective estimates of their daily drinking over a specified time period that can vary up to 12 months from the interview date. Several memory aids can be used to enhance recall (e.g., calendar; key dates serve as anchors for reporting drinking; standard drink conversion). […] The method is recommended for use when relatively precise estimates of drinking are necessary, especially when a complete picture of drinking days (i.e., high- and low-risk days) is needed (evaluating drinking pre/post-treatment). Clinically, the TLFB can be used to provide feedback about one's drinking in an effort to increase a client's motivation to change. Overall, the Alcohol TLFB method provides a relatively accurate portrayal of drinking, and has both clinical and research utility. • 3. The BDI-II: is instrument endorsed by the National Institute for Health and Clinical Excellence for use in primary care in measuring baseline depression severity and responsiveness to treatment. • 4. The STAI: is an assessment tool for measuring the presence and severity of current symptoms of anxiety and a generalized propensity to be anxious. There are 2 subscales within this measure. First, the State Anxiety Scale (S-Anxiety) evaluates the current state of anxiety, asking how respondents feel “right now,” using items that measure subjective feelings of apprehension, tension, nervousness, worry, and activation/arousal of the autonomic nervous system. […]

Structure (SMILES): COC(=O)N1CC[C@@H]2[C@H]1CCC[C@@]2(O)C#Cc1cccc(C)c1 [mavoglurant, (-)-(3aR,4S,7aR)-4-Hydroxy-4-m-tolylethynyl-octahydro-indole-1-carboxylic acid methyl ester]
- alcohol consumption by TLFB [1]: reduced alcohol consumption
- overall AE rate vs placebo group ([2]; CUD patients, 98-day treatment): comparable
- overall safety and tolerability ([2]; CUD patients, 98-day treatment): safe and well tolerated
- rate of psychiatric symptoms vs placebo group ([2]; CUD patients, 98-day treatment): higher rate of psychiatric symptoms
- vital signs, ECGs, clinical safety laboratory parameters ([2]; CUD patients, 98-day treatment): no significant findings
- overall safety and tolerability ([2]; CUD patients, 98-day treatment, listed as Mavoglurant): safe and well-tolerated
- deaths or SAEs ([2]; mavoglurant group): no deaths or SAEs

— patent publication US20240050408A1, “USE OF MGLUR5 ANTAGONISTS FOR TREATING AMPHETAMINE ADDICTION” (NOVARTIS AG, priority 2020, published 2024)
